≈ marks a conversion by molar mass, not a printed value. Like-named read-outs stand apart in the source and are kept apart here.
Tests used:
Assay type in all cases: cell-based
[1] = tested on: C. albicans ATCC 10231; test: broth microdilution antifungal assay (MIC); settings: Candida albicans, ATCC10231, 24 h, range 100–0.19 µM
Procedure: The reference strain of Candida albicans (ATCC 10231) was used in the present study and maintained on Sabouraud Dextrose Agar (Biolife Italiana S.r.l., Milan, Italy) before the antifungal assays.
(§1) The minimum inhibitory concentrations (MICs) were determined using the microbroth dilution method in microtiter plates according to the Clinical and Laboratory Standards Institute (CLSI) guidelines. In short, microbial inocula were prepared at 0.5 McFarland in PBS and, subsequently, bacterial suspensions were diluted 1:200 in Mueller–Hinton broth (Sigma-Aldrich, St. Louis, MO, USA), while fungal inoculum was diluted 1:20 in RPMI-1640 medium (Gibco®, ThermoFisher Scientific Inc., Waltham, MA, USA), containing glucose 2%, 0.3% levo-glutamine buffered to pH 7.0 with 0.165 M 3-(N-morpholino)propanesulfonic acid (MOPS). A total of 100 µL of these microbial suspensions was introduced into a 96-well microplate and incubated with 100 µL of the compounds, two-fold serially diluted in the range of 100–0.19 µM. Positive controls (microbial suspensions in regular media), negative controls (only compounds), solvent controls (microbial suspensions incubated with DMSO dilutions), and the reference drug controls were included in the tests. The plate was incubated at 37 °C for 24 h, and subsequently the optical density at 630 nm (OD630nm) was spectrophotometrically measured. Experiments were performed in triplicate with three biological replicates. In addition to MIC, IC50 values were measured for the active compounds. The values, corresponding to the concentration of the compound giving rise to an inhibition of growth of 50%, were obtained by interpolation on dose–response curves generated by plotting the percentages of growth inhibition, relative to the positive control (set to 100% of growth), as a function of the tested concentrations (on a logarithm scale). Statistical analysis was carried out by using GraphPad Prism version 9.4.1 for Windows (GraphPad Software, San Diego, CA, USA, www.graphpad.com).

[2] = tested on: clinical isolates of methicillin-resistant S. aureus (MRSA); test: broth microdilution IC50 on MRSA clinical isolates; settings: Staphylococcus aureus; five MRSA clinical isolates, range of IC50; read-out: IC50 ranges, MRSA (n = 5)
From the text: (§2) Reference bacterial strains of Staphylococcus aureus (ATCC 25923) and Escherichia coli (ATCC 25922) were used in this study as Gram-positive and negative models, respectively. These reference strains were purchased from the American Type Culture Collection (ATCC, Manassas, VA, USA). Clinical isolates, identified by MALDI-TOF MS (Bruker Daltonik, GmbH, Bremen, Germany), were profiled for their antibiotic susceptibility by using the Vitek2 semiautomated system (bioMérieux, Craponne, France) and according to EUCAST (Version 12, 2022, http://www.eucast.org (accessed on 1 January 2022)). The bacterial cultures were routinely grown on 5% blood agar plates (Biolife Italiana S.r.l., Milan, Italy) and were freshly used in the antibacterial assays.
as §1

[3] = tested on: E. coli ATCC 25923; test: broth microdilution antimicrobial assay (MIC); settings: Escherichia coli, ATCC25923, 24 h, range 100–0.19 µM
[4] = cell viability and proliferation assay (CCK-8/WST8); settings: human, WS1 cells (human-derived fibroblasts, ATCC CRL-1502), mean value with standard deviation
Procedure: WS1 cells (ATCC CRL-1502) were selected as a model system to investigate the effect of PTZ-quinoline hybrid compounds on human-derived fibroblasts. Briefly, cells were cultured in DMEM-High glucose supplemented with 10% fetal bovine serum (FBS) (Carlo Erba Reagents, Milan, Italy), 100 U/mL penicillin, and 100 µg/mL streptomycin at 37 °C with 5% CO2. For experiments, cells were seeded into 96-well plates at 0.7 × 10^4 cells/well, and incubated at 37 °C for 24 h. […] Cell viability was assessed by a WST8-based assay according to the manufacturer’s instructions (CCK-8, Cell Counting Kit-8, Dojindo Molecular Technologies, Rockville, MD, USA). After 48 h of incubation, culture medium was removed from each well, the monolayer was washed with PBS, and 100 µL of fresh medium containing 10 µL of CCK-8 solution was added. Following a 2 h incubation at 37 °C, the OD450nm was read, and data were expressed as the percentage of cell viability relative to the untreated controls. The CC50 was obtained on the corresponding dose–response curves generated as previously reported for IC50 values. Experiments were carried out in triplicate in three biological replicates.

[5] = tested on: P. falciparum CQ-sensitive (CQ-S) D10 strain; test: antiplasmodial drug susceptibility assay (pLDH), CQ-sensitive strain; settings: Plasmodium falciparum; P. falciparum D10, 72 h, pLDH; mean value with standard deviation; read-out: IC50 D10 (CQ-S)
Procedure: (§3) P. falciparum cultures were carried out according to Trager and Jensen with slight modifications. The CQ-sensitive strain D10 and the CQ-resistant strain W2 were maintained at 5% hematocrit (human A-positive erythrocytes) in RPMI 1640 medium (EuroClone S.p.A, Milan, Italy) with the addition of 1% AlbuMax (Invitrogen, San Diego, California, USA), 0.01% hypoxanthine, 20 mM Hepes, and 2 mM glutamine at 37 °C in a standard gas mixture (1% O2, 5% CO2, and 94% N2). […] Drugs were placed in 96-well flat-bottomed microplates, and serial dilutions were made. Asynchronous cultures with parasitaemia of 1–1.5% and 1% final hematocrit were aliquoted into the plates and incubated for 72 h at 37 °C. Parasite growth was determined spectrophotometrically (OD650nm) by measuring the activity of the parasite lactate dehydrogenase (pLDH), as described in a modified version of Makler’s method in control- and drug-treated cultures. The antiplasmodial activity is expressed as 50% inhibitory concentrations (IC50); each IC50 value is the mean ± standard deviation of at least three separate experiments performed in duplicate.

[6] = tested on: S. aureus ATCC 25923; test: broth microdilution antimicrobial assay (MIC, IC50); settings: Staphylococcus aureus, ATCC25923; for MIC: broth microdilution, 24 h, range 100–0.19 µM
From the text: as §2, §1

[7] = tested on: P. falciparum CQ-resistant (CQ-R) W2 strain; test: antiplasmodial drug susceptibility assay (pLDH), CQ-resistant strain; settings: Plasmodium falciparum; P. falciparum W2, 72 h, pLDH; mean value with standard deviation; read-out: IC50 W2 (CQ-R)
Procedure: as §3

[8] = S. aureus ATCC 25923, 24 h, OD630, mean value with standard deviation, read-out: IC50 ATCC 25923
[9] = reference strain, range of IC50, read-out: IC50 ranges, ATCC 25923

Structure (SMILES)	MIC [1] [µM]	IC50 [2] [µM]	MIC [3] [µM]	CC50 at 48 h [4] [µM]	IC50 [5] [µM]	IC50 [6, 8] [µM]	MIC [6] [µM]	IC50 [6, 9] [µM]	IC50 [7] [µM]
Clc1ccc2c(NCCCn3cc(CN4c5ccccc5Sc5ccccc54)nn3)ccnc2c1 [Compound 5a, N-(3-(4-((10H-phenothiazin-10-yl)methyl)-1H-1,2,3-triazol-1-yl)propyl)-7-chloroquinolin-4-amine]	> 100	6.4 to 9.63	> 100	11.8 ± 0.14	0.292 ± 0.078	6.73 ± 1.32	12.5 (≈ 6.24 µg/mL)	5.41 to 8.05	0.174 ± 0.025
Clc1ccc2c(c1)N(Cc1cn(CCCNc3ccnc4cc(Cl)ccc34)nn1)c1ccccc1S2 [Compound 5b, 7-chloro-N-(3-(4-((2-chloro-10H-phenothiazin-10-yl)methyl)-1H-1,2,3-triazol-1-yl)propyl)quinolin-4-amine]	> 100	6.18 to 10.3	> 100	22.1 ± 0.66	0.146 ± 0.006	5.03 ± 1.72	6.25 to 12.5 (≈ 3.33 to 6.67 µg/mL)	3.31 to 6.75	0.135 ± 0.017
Clc1ccc2c(c1)N(Cc1cn(CCNc3ccnc4cc(Cl)ccc34)nn1)c1ccccc1S2 [Compound 4b, 7-chloro-N-(2-(4-((2-chloro-10H-phenothiazin-10-yl)methyl)-1H-1,2,3-triazol-1-yl)ethyl)quinolin-4-amine]	> 100	4.42 to 6.48	> 100	12.7 ± 3.51	0.156 ± 0.018	4.86 ± 0.89	6.25 to 12.5 (≈ 3.25 to 6.49 µg/mL)	3.97 to 5.75	0.154 ± 0.002
Clc1ccc2c(NCCCCCn3cc(CN4c5ccccc5Sc5ccccc54)nn3)ccnc2c1 [Compound 6a, N-(5-(4-((10H-phenothiazin-10-yl)methyl)-1H-1,2,3-triazol-1-yl)pentyl)-7-chloroquinolin-4-amine]	> 100		> 100	48.3 ± 0.9	0.326 ± 0.12		> 100		0.377 ± 0.066
Clc1ccc2c(NCCn3cc(CN4c5ccccc5Sc5ccccc54)nn3)ccnc2c1 [Compound 4a, N-(2-(4-((10H-phenothiazin-10-yl)methyl)-1H-1,2,3-triazol-1-yl)ethyl)-7-chloroquinolin-4-amine]	> 100	7.75 to 8.98	> 100	17.9 ± 3.23	0.142 ± 0.02	7.49 ± 0.15	12.5 (≈ 6.06 µg/mL)	7.34 to 7.64	0.2 ± 0.03

From PMC12561106, “STOP Strategy to Inhibit P. falciparum and S. aureus Growth: Molecular Mechanism Studies on Purposely Designed Hybrids” (Antibiotics, 2025)
